According to patent US12729221B2, “Anti-inflammatory peptide and use thereof” (MITO QUEST CO., LTD., priority 2020, dated 2026):
Where no end group is shown, it is not given here.

Legend:
IL-1b = test: LPS/ATP-induced IL-1b expression (inflammasome response) in IC21, ELISA; format: cell-based, mouse; details: 1 mg/ml LPS, 5 mM ATP 30 minutes, 2 mM peptide
Method: (§1) Specifically, LPS and ATP were used to induce an inflammasome response caused by bacterial infection, and polyIC was used to induce an inflammatory response caused by viral infection. First, 1 mg/ml LPS and 5 mM or 1 mM novel alanine-substituted peptide were mixed in a serum-free cell culture medium, followed by treatment with 1×10^5 cells of IC21. Thereafter, 5 mM ATP and 5 mM or 1 mM novel alanine-substituted peptide were mixed in a serum-free cell culture medium and treated for 30 minutes. Then, the supernatant was obtained and the expression level of IL-1b was checked by ELISA. Also, 5 mg/ml polyIC and 25 mM or 2 mM novel alanine-substituted peptide were mixed in a serum-free cell culture medium, followed by treatment with 1×10^5 cells of MLE-12 for 16 hours. Thereafter, the supernatant was obtained and the expression level of IFN-b was checked by ELISA.
as §1, with “2” for “5 mM or 1”, “amino acid-substituted” for “alanine-substituted”, “and” for “and 25 mM or”
Specifically, LPS was used to induce an inflammatory response caused by bacterial infection. First, MQP-37 or MQP-37A6 was added to a serum-free cell culture medium containing 0.1 mg/ml LPS, followed by treatment with 1×10^5 cells of IC21 for 6 hours. Then, the supernatant was obtained and the expression level of IL-6 was checked by ELISA. Also, the Western blot was performed and the phosphorylation of NF-κB was checked to identify the mechanism of immune activation response. Thereafter, LPS and ATP were used to induce an inflammasome response caused by bacterial infection, LPS and ATP were used. First, 1 mg/ml LPS and L- or D-MQP-37 and MQP-37A6 were mixed in a serum-free cell culture medium and treated with 1×10^5 cells of IC21. Then, 5 mM ATP and MQP-37 or MQP-37A6 were mixed in a serum-free cell culture medium and treated for 30 minutes. Thereafter, the supernatant was obtained and the expression level of IL-1b was checked by ELISA.

IC21 = test: XTT cytotoxicity test; format: cell-based, mouse; details: at a concentration of 10 mM; FIGS. 4-B and 4-C
Method: Specifically, in order to check the cytotoxicity of the peptides, the XTT test method for measuring the activity of mitochondria in cells was used. First, […] 16 hours, followed by XTT assay for 1 hour to measure the amount of water-soluble formazan produced by reduction by dehydrogenase in the mitochondria.

NF-κB = test: LPS-induced phosphorylation of NF-kB in IC21, Western blot; format: cell-based, mouse; details: 5 mM peptide, 10 ng/ml endotoxin, 6 hours, vs control treated with LPS only
Excerpt: Specifically, LPS was used to induce an immune activation response caused by bacterial infection, and the phosphorylation of nuclear factor kappa-light-chain-enhancer of activated B cells (NF-kB) was checked to identify the mechanism of the immune activation response. […] Thereafter, the cells were washed with a PBS solution and then lysed with a RIPA buffer, and the supernatant was separated. In order to measure the change in the phosphorylation amount of NF-κB protein with the separated supernatant, the Western blot was performed as in Example 2.

interferon-beta (IFN-b) = test: polyIC-induced IFN-b expression in MLE-12 cells, ELISA; format: cell-based, mouse; details: 5 mg/ml polyIC, 16 hours; for expression level of IFN-b: vs control group treated only with polyIC
Method: Specifically, polyinosinic:polycytidylic acid (polyIC), which is a synthetic ribonucleic acid known to be associated with viral infection among the PAMPs and promotes the production of interferon and is analogous to an RNA virus gene, was used to induce a viral infection response. First, a serum-free cell culture medium containing 5 mg/ml polyIC and MQP-15, MQP-23, MQP-31, MQP-37, MQP-Y9 or MQP-T234 was treated with 1×10^5 cells of a mouse lung epithelial cell line (MLE-12) for 16 hours. Then, the supernatant was obtained and the expression level of interferon-beta (IFN-b) was checked by enzyme-linked immunosorbent assay (ELISA).
as §1
as §1, with “2” for “5 mM or 1”, “amino acid-substituted” for “alanine-substituted”, “and” for “and 25 mM or”
Specifically, polyIC was used to induce a viral infection response. First, a serum-free cell culture medium containing 5 mg/ml polyIC and MQP-37, MQP-37A6, MQP-37D6W, MQP-37D6Y, MQP-37D6H, MQP-37D6K, MQP-37D6R or MQP-37D6V was treated with 1×10^5 cells of MLE-12 for 16 hours. Then, the supernatant was obtained and the expression level of IFN-b was checked by ELISA.

interleukin-6 (IL-6) = test: LPS-induced IL-6 expression in IC21, ELISA; format: cell-based, mouse; details: 0.1 mg/ml LPS, 6 hours
Method: Specifically, LPS was used to induce an inflammatory response caused by bacterial infection. First, MQP-15, MQP-23, MQP-31, MQP-37 or MQP-Y9 was added to a serum-free cell culture medium containing 0.1 mg/ml LPS, followed by treatment with 1×10^5 cells of IC21 for 6 hours. Then, the supernatant was obtained and the expression levels of interleukin-6 (IL-6) and a tumor necrosis factor-alpha (TNF-a) were checked by ELISA.

[1] = system: interleukin-1beta (IL-1b); test: IL-1b expression induced by LPS, OMV or LPS and nigericin in IC21, ELISA; format: cell-based, mouse; details: 1 mg/ml LPS 4 hours, 5 mM nigericin 1 hour, FIG. 5B-D
Method: Specifically, LPS (lipopolysaccharide) and Gram-negative bacteria-derived outer membrane vesicle (OMV) were used as endotoxins to induce the inflammasome response caused by bacterial infection. First, 5 mM MQP-15, MQP-23, MQP-31 or MQP-37 was added to a serum-free cell culture medium containing 0.1 mg/ml LPS or OMV, followed by treatment with 1×10^5 cells of IC21 for 6 hours. Also, MQP-37 or MQP-Y9 was added to a serum-free cell culture medium containing 1 mg/ml LPS and 5 mM nigericin, followed by treatment for 5 hours (LPS treatment-4 hours; nigericin treatment-1 hour). Then, the supernatant was obtained and the expression level of interleukin-1beta (IL-1b) was checked by ELISA, and the cells were lysed and subjected to SDS-PAGE, and the inflammasome factors were analyzed by the Western blot.

MAVS proteins = target: T1, MAVS proteins (Mus musculus, UniProt Q8VCF0); test: MAVS aggregation induced by LPS and nigericin, Western blot of isolated mitochondria; format: cell-based; details: 5 mM peptide; IC21; 1 mg/ml LPS 4 hours then 5 mM nigericin 1 hour; vs control group treated with endotoxin and nigericin
T1 construct: mitochondria in IC21 were isolated with a hypotonic buffer and centrifugation; endogenous in cells; host or cells: IC21 mouse peritoneal macrophage cell line
T1 sequence (Q8VCF0 1-503): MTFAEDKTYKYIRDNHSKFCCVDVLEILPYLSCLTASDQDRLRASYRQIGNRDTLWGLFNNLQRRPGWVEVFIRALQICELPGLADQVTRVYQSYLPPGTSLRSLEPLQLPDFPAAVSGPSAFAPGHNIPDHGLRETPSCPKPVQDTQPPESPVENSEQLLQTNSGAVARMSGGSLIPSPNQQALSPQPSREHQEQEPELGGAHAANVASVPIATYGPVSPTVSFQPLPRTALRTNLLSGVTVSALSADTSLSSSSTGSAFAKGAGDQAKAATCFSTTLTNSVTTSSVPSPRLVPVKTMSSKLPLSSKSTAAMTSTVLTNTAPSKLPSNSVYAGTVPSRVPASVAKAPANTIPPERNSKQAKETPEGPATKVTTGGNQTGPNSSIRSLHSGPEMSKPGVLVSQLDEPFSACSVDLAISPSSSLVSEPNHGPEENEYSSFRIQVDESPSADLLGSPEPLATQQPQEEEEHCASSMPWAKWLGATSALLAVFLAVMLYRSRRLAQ
Method: Specifically, the aggregation of MAVS proteins was induced by stimulation with pathogen-associated molecular patterns (PAMPs), and endotoxin (lipopolysaccharide (LPS)) and nigericin were used as the PAMPs. First, 5 mM MQP-15, MQP-23, MQP-31 or MQP-37 was added to a serum-free cell culture medium containing 1 mg/ml LPS, followed by treatment with 1×10^5 cells of a mouse peritoneal macrophage cell line (IC21) for 4 hours. Then, 5 mM MQP-15, MQP-23, MQP-31 or MQP-37 was added to a serum-free cell culture medium containing 5 mM nigericin, followed by treatment with IC21 for additional 1 hour. Thereafter, mitochondria in IC21 were isolated with a hypotonic buffer and centrifugation. Then, in order to check the result of MAVS aggregation by the Western blot, a sample was prepared using a semi-denaturing detergent in the isolated mitochondria and electrophoresis was performed. After the electrophoretically isolated mitochondrial protein was transferred to a polyvinylidene difluoride (PVDF) membrane, a primary antibody recognizing the MAVS proteins and a secondary antibody recognizing the primary antibody were additionally treated. Thereafter, the aggregation of MAVS proteins was checked by inducing a chemiluminescence reaction of the secondary antibody.

MLE-12 = test: Cytotoxicity at maximum concentration (Example 13); format: cell-based, mouse; details: at the maximum concentration in the experiment; FIG. 13B-F

MQP-37A1: prepared by substituting the first amino acid of MQP-37A6 with alanine (ALVLADARW; MQP-37A1)
inflammasome response caused by bacterial infection (IL-1b), first amino acid substituted (IL-1b; FIG. 10A-A): most effectively

KRLLFWIFIK [MQP-Y9]
cytotoxicity (XTT) (IC21): did not exhibit any cytotoxicity
phosphorylation amount of NF-κB (NF-κB): significantly decreased
expression level of IFN-b with various concentrations of peptide (interferon-beta (IFN-b)): decreased in a concentration-dependent manner
expression level of IFN-b (interferon-beta (IFN-b)): decreased
expression level of IL-6 after LPS treatment with various concentrations of peptide (interleukin-6 (IL-6)): decreased in a concentration-dependent manner
production of IL-1b after LPS and nigericin treatment [1]: inhibited in an MQP-Y9 concentration-dependent manner

SLVLADARW [MQP-37]
cytotoxicity (XTT) (IC21): did not exhibit any cytotoxicity

MQP-23: novel peptide complementary to a MAVS domain sequence (hydropathic complementarity); sequence not tied to the code in the text (LQHLEDGM; MQP-23)
expression level of IFN-b (interferon-beta (IFN-b)): decreased
aggregation of MAVS proteins (MAVS proteins): decreased

MQP-37D6H: MQP-37 whose sixth amino acid (aspartic acid) is substituted with histidine (SLVLAHARW; MQP-37D6H)
inflammatory response caused by viral infection (IFN-b) (interferon-beta (IFN-b); FIGS. 13A-C and 13A-D): inhibited the inflammatory response caused by viral infection in a concentration-dependent manner
inflammasome response caused by bacterial infection (IL-1b), sixth amino acid of MQP-37 substituted (IL-1b; FIG. 10A-B): effectively

MQP-T234: novel anti-inflammatory peptide prepared in Example 1 (KVGDRARWGSRS; MQP-T234)
expression level of IFN-b (interferon-beta (IFN-b)): decreased

MQP-31: novel peptide complementary to a MAVS domain sequence (hydropathic complementarity); sequence not tied to the code in the text (DGTECR; MQP-31)
expression level of IFN-b (interferon-beta (IFN-b)): decreased
aggregation of MAVS proteins (MAVS proteins): decreased

MQP-15: novel peptide complementary to a MAVS domain sequence (hydropathic complementarity); sequence not tied to the code in the text (LKSLKTLH; MQP-15)
expression level of IFN-b (interferon-beta (IFN-b)): decreased
aggregation of MAVS proteins (MAVS proteins): decreased

SLVLAYARW [MQP-37D6Y]
cytotoxicity (MLE-12): did not show cytotoxicity

MQP-37D6W: MQP-37 whose sixth amino acid (aspartic acid) is substituted with tryptophan (SLVLAWARW; MQP-37D6W)
inflammatory response caused by viral infection (IFN-b), sixth amino acid of MQP-37 substituted, compared to the original peptide (interferon-beta (IFN-b); 2 mM peptide, FIG. 10B-C): effectively inhibited even at a low peptide concentration
inhibiting the inflammatory response caused by viral infection (IFN-b), compared to MQP-37 and MQP-37A6 (interferon-beta (IFN-b); concentration-dependent, FIGS. 13A-A and 13A-B): outstanding effect
